Data published in DBAASP.
Converted amounts (≈) assume the structure as drawn. One block for each compound: values may come before it.

Experiments:
Assay in all cases: ≥ marks a high value that may be exact or a test limit, other limits are often not marked, values filed in µg/mL are converted to µM
[1] = tested on: Escherichia coli K-12
[2] = tested on: Staphylococcus aureus USA 300
[3] = tested on: Candida albicans ATCC 2002
[4] = tested on: Shigella dysenteriae
[5] = tested on: Bacillus megaterium
[6] = tested on: Klebsiella pneumoniae
[7] = tested on: Escherichia coli ATCC 25922
[8] = tested on: Pseudomonas aeruginosa CMCCB 10104
[9] = tested on: Staphylococcus aureus ATCC 2592
[10] = tested on: Bacillus subtilis ATCC 23857
[11] = tested on: Listeria innocua
[12] = tested on: Leuconostoc lactis
[13] = tested on: Staphylococcus epidermidis ATCC 12228
[14] = tested on: Staphylococcus aureus ATCC 29213
[15] = tested on: Pseudomonas aeruginosa ATCC 27853
[16] = tested on: Staphylococcus aureus ATCC 6538
[17] = tested on: Klebsiella pneumoniae ATCC 10031
[18] = tested on: Bacillus subtilis ATCC 6633
[19] = tested on: Shigella dysenteriae ATCC 9752
[20] = tested on: Staphylococcus aureus ATCC 6538P
[21] = tested on: Salmonella enterica subsp. enterica serovar Typhimurium ATCC 14028
[22] = tested on: Escherichia coli UB1005
[23] = tested on: Pseudomonas aeruginosa H103
[24] = tested on: Enterococcus faecalis ATCC 29212
[25] = tested on: Salmonella enterica serovar Typhimurium
[26] = tested on: Staphylococcus epidermidis
[27] = tested on: Staphylococcus aureus ATCC 25923
[28] = tested on: Candida albicans

SMILES: CC[C@H](C)[C@H](NC(=O)CN)C(=O)NCC(=O)NCC(=O)N[C@@H](CCCCN)C(=O)N[C@H](C(=O)N[C@@H](CC(C)C)C(=O)N[C@@H](CO)C(=O)NCC(=O)N[C@@H](CC(C)C)C(=O)N[C@@H](CCCCN)C(=O)N[C@H](C(=O)N[C@@H](C)C(=O)N[C@@H](CC(C)C)C(=O)N[C@@H](CCCCN)C(=O)NCC(=O)N[C@@H](C)C(=O)N[C@@H](C)C(=O)N[C@@H](CCCCN)C(=O)N[C@@H](CCC(=O)O)C(=O)N[C@@H](CC(C)C)C(=O)N[C@@H](C)C(=O)N[C@@H](CO)C(=O)N[C@H](C(=O)N[C@@H](Cc1ccc(O)cc1)C(=O)N[C@@H](CC(C)C)C(=O)N[C@@H](Cc1cnc[nH]1)C(=O)O)[C@@H](C)O)[C@@H](C)O)[C@@H](C)CC [GIGGKILSGLKTALKGAAKELASTYLH]
MIC [3]: 5.56 µM (≈ 15 µg/mL)
MIC [4]: 0.334 µM (≈ 0.9 µg/mL)
MIC [5]: 0.334 µM (≈ 0.9 µg/mL)
MIC [6]: 1.15 µM (≈ 3.1 µg/mL)
MIC [7]: 0.334 µM (≈ 0.9 µg/mL)
MIC [8]: 0.556 µM (≈ 1.5 µg/mL)
MIC [9]: 1.15 µM (≈ 3.1 µg/mL)

SMILES: CC[C@H](C)[C@H](NC(=O)CN)C(=O)N[C@H](C(=O)N[C@@H](C)C(=O)NCC(=O)N[C@@H](C)C(=O)N[C@H](C(=O)N[C@H](C(=O)N[C@@H](CCCCN)C(=O)N[C@H](C(=O)N[C@@H](CCCCN)C(=O)N[C@@H](CCCCN)C(N)=O)[C@@H](C)CC)[C@@H](C)CC)[C@@H](C)CC)[C@@H](C)CC [GIIAGAIIKIKK]
MIC [7]: 64 µM (≈ 78.3 µg/mL)
MIC [10]: ≥ 32 µM

SMILES: CC(C)C[C@H](NC(=O)[C@H](Cc1c[nH]c2ccccc12)NC(=O)[C@H](CCCCN)NC(=O)[C@H](CCCCN)NC(=O)[C@@H](N)CC(C)C)C(=O)N[C@@H](CCCCN)C(N)=O [LKKWLK]
MIC [13]: > 245 µM
MIC [15]: > 245 µM
MIC [17]: ≥ 245 µM
MIC [18]: ≥ 245 µM
MIC [19]: ≥ 245 µM
MIC [7]: > 245 µM
MIC [20]: ≥ 245 µM
MIC [21]: > 245 µM

SMILES: CC[C@H](C)[C@H](NC(=O)[C@@H](N)CCCN=C(N)N)C(=O)N[C@@H](CCCCN)C(=O)N[C@@H](CCCN=C(N)N)C(=O)N[C@@H](Cc1c[nH]c2ccccc12)C(=O)N[C@@H](Cc1c[nH]c2ccccc12)C(=O)N[C@@H](Cc1c[nH]c2ccccc12)C(=O)N[C@@H](Cc1c[nH]c2ccccc12)C(=O)N[C@@H](CCCN=C(N)N)C(=O)O [RIKRWWWWR]
MIC [22]: 2.7 µM (≈ 3.98 µg/mL)
MIC [23]: ≥ 86.3 µM
MIC [24]: 10.8 µM (≈ 15.9 µg/mL)
MIC [25]: 2.7 µM (≈ 3.98 µg/mL)
MIC [26]: 1.3 µM (≈ 1.91 µg/mL)
MIC [27]: 1.3 µM (≈ 1.91 µg/mL)
MIC [28]: 5.4 µM (≈ 7.95 µg/mL)

SMILES: CC[C@H](C)[C@H](NC(=O)[C@H](Cc1ccc(O)cc1)NC(=O)[C@@H](NC(=O)[C@H](CCCN=C(N)N)NC(=O)[C@H](Cc1c[nH]c2ccccc12)NC(=O)[C@H](CCCN=C(N)N)NC(=O)[C@H](Cc1ccccc1)NC(=O)[C@H](CCCCN)NC(=O)[C@@H](N)Cc1ccc(O)cc1)[C@@H](C)CC)C(=O)O [YKFRWRIYI]
MIC [22]: 2.9 µM (≈ 3.9 µg/mL)
MIC [23]: ≥ 92.8 µM
MIC [24]: 2.9 µM (≈ 3.9 µg/mL)
MIC [25]: ≥ 92.8 µM
MIC [26]: 1.4 µM (≈ 1.88 µg/mL)
MIC [27]: 2.9 µM (≈ 3.9 µg/mL)
MIC [28]: > 92.8 µM

Continued, values first:

MIC [1]: ≥ 60 µM
MIC [2]: 30 µM (≈ 68.6 µg/mL)
SMILES: CC[C@H](C)[C@H](NC(=O)[C@H](CCCN=C(N)N)NC(=O)[C@H](CCC(N)=O)NC(=O)[C@@H](NC(=O)[C@@H](NC(=O)[C@H](CCCN=C(N)N)NC(=O)[C@H](CCCN=C(N)N)NC(=O)[C@H](Cc1ccccc1)NC(=O)[C@H](CCC(=O)O)NC(=O)CN)[C@@H](C)CC)C(C)C)C(=O)N[C@@H](CCCN=C(N)N)C(=O)N[C@@H](CC(=O)O)C(=O)N[C@@H](Cc1ccccc1)C(=O)N[C@@H](CC(C)C)C(=O)N[C@@H](CCCN=C(N)N)C(=O)N[C@@H](CC(N)=O)C(=O)N[C@@H](CC(C)C)C(=O)N[C@H](C(N)=O)C(C)C [GEFRRIVQRIRDFLRNLV]

MIC [3]: 5.74 µM (≈ 15 µg/mL)
MIC [4]: 1.03 µM (≈ 2.7 µg/mL)
MIC [5]: 0.574 µM (≈ 1.5 µg/mL)
MIC [6]: 5.74 µM (≈ 15 µg/mL)
MIC [7]: 1.03 µM (≈ 2.7 µg/mL)
MIC [8]: 1.03 µM (≈ 2.7 µg/mL)
MIC [9]: 1.03 µM (≈ 2.7 µg/mL)
SMILES: CC[C@H](C)[C@H](NC(=O)CN)C(=O)NCC(=O)NCC(=O)N[C@H](C(=O)N[C@@H](CC(C)C)C(=O)N[C@@H](CC(C)C)C(=O)N[C@@H](CO)C(=O)N[C@@H](C)C(=O)NCC(=O)N[C@@H](CCCCN)C(=O)N[C@@H](C)C(=O)N[C@@H](C)C(=O)N[C@@H](CC(C)C)C(=O)N[C@@H](CCCCN)C(=O)NCC(=O)N[C@@H](CC(C)C)C(=O)N[C@@H](C)C(=O)N[C@@H](CCCCN)C(=O)N[C@H](C(=O)N[C@@H](CC(C)C)C(=O)N[C@@H](C)C(=O)N[C@@H](CCC(=O)O)C(=O)N[C@@H](CCCCN)C(=O)N[C@@H](Cc1ccc(O)cc1)C(=O)N[C@@H](C)C(=O)N[C@@H](CC(N)=O)C(N)=O)C(C)C)C(C)C [GIGGVLLSAGKAALKGLAKVLAEKYAN]

MIC [11]: ≥ 41.8 µM
MIC [12]: 10.4 µM (≈ 25 µg/mL)
SMILES: CC[C@H](C)[C@H](NC(=O)[C@H](CO)NC(=O)[C@H](CO)NC(=O)[C@@H](NC(=O)[C@H](CC(C)C)NC(=O)CN)C(C)C)C(=O)NCC(=O)N[C@@H](CCCCN)C(=O)N[C@H](C(=O)N[C@@H](CC(C)C)C(=O)NCC(=O)NCC(=O)N[C@@H](CC(C)C)C(=O)N[C@@H](CC(C)C)C(=O)N[C@@H](C)C(=O)N[C@@H](CC(=O)O)C(=O)N[C@H](C(=O)N[C@H](C(=O)N[C@@H](CCCCN)C(=O)N[C@@H](CO)C(=O)N[C@@H](CCCCN)C(=O)NCC(=O)N[C@@H](CCC(N)=O)C(=O)N1CCC[C@H]1C(=O)N[C@@H](C)C(=O)O)C(C)C)C(C)C)C(C)C [GLVSSIGKVLGGLLADVVKSKGQPA]

MIC [13]: 512 µM (≈ 860 µg/mL)
MIC [14]: 1020 µM (≈ 1720 µg/mL)
MIC [7]: 256 µM (≈ 430 µg/mL)
MIC [10]: ≥ 128 µM
SMILES: CC[C@H](C)[C@H](N)C(=O)N[C@@H](CC(=O)O)C(=O)N[C@@H](Cc1c[nH]c2ccccc12)C(=O)N[C@@H](CCCCN)C(=O)N[C@@H](CCCCN)C(=O)N[C@@H](CC(C)C)C(=O)N[C@@H](CC(C)C)C(=O)N[C@@H](CC(=O)O)C(=O)N1CCC[C@H]1C(=O)N[C@@H](C)C(=O)N[C@@H](CCCCN)C(=O)N[C@@H](CCC(N)=O)C(=O)N[C@H](C(=O)N[C@@H](CC(C)C)C(N)=O)[C@@H](C)CC [IDWKKLLDPAKQIL]

MIC [15]: > 3 µM
MIC [1]: 6 µM (≈ 15.9 µg/mL)
MIC [16]: > 12 µM
SMILES: CC[C@H](C)[C@H](NC(=O)[C@H](CC(N)=O)NC(=O)[C@H](CCCN=C(N)N)NC(=O)[C@H](C)NC(=O)[C@H](CCSC)NC(=O)[C@H](CCCCN)NC(=O)[C@H](CCC(=O)O)NC(=O)[C@@H](NC(=O)[C@H](CCCCN)NC(=O)[C@H](CCCCN)NC(=O)[C@H](Cc1ccccc1)NC(=O)[C@@H](NC(=O)[C@H](CCCCN)NC(=O)[C@H](Cc1c[nH]c2ccccc12)NC(=O)[C@@H](N)CCCCN)C(C)C)[C@@H](C)CC)C(=O)N[C@@H](CCCN=C(N)N)C(=O)N[C@@H](CC(N)=O)C(=O)N[C@@H](CCCCN)C(=O)N[C@H](C(=O)N[C@H](C(=O)N[C@@H](CCCCN)C(N)=O)C(C)C)[C@@H](C)CC [KWKVFKKIEKMARNIRNKIVK]

MIC [15]: 8 µM (≈ 11.1 µg/mL)
MIC [7]: 64 µM (≈ 88.5 µg/mL)
MIC [27]: 32 µM (≈ 44.3 µg/mL)
MIC [10]: 16 µM (≈ 22.1 µg/mL)
SMILES: CC(C)C[C@H](NC(=O)[C@H](CC(C)C)NC(=O)[C@H](CCCCN)NC(=O)[C@H](CCCCN)NC(=O)[C@H](Cc1c[nH]c2ccccc12)NC(=O)[C@H](CCCN=C(N)N)NC(=O)[C@H](CCCCN)NC(=O)[C@H](CC(C)C)NC(=O)[C@H](CC(C)C)NC(=O)[C@@H](N)Cc1c[nH]c2ccccc12)C(N)=O [WLLKRWKKLL]
